This is an account of results in BindingDB's records for doi:10.1021/jm401801t (University of Geneva, 2014).

Test [1] in a line: Inhibition of human HSP90alpha expressed in yeast assessed as growth inhibition of host after 72 hrs.
The nature of test [2]: Inhibition of human HSP90beta expressed in yeast assessed as growth inhibition of host after 72 hrs.

For orientation: IC50 means the concentration at which inhibition is half-maximal. Turning to `COCC(=O)Nc1c(C(=O)OC)n(CCC(C)C)c2ncc(NC(C)CCC=C(C)C)cc12` (configuration not stated), the figures for the IC50 in test [1] and in test [2] were 308 µM and 120 µM, respectively.
